In patent publication US4529600A, “Pentadeuterioretinoids” (SRI International, priority 1982, dated 1985):

Key:
[1] = system: keratinization in hamster tracheal organ culture; assay: tracheal organ culture assay: reversal of keratinization in hamster tracheal organ culture; format: cell-based; conditions: 10 days in culture
Description: (§1) The ODC assay measures a compound's effect on the prevention of the induction of ODC. The tracheal organ culture assay measures a compound's ability to reverse keratinization. For comparison purposes retinoic acid was also tested by these assays.
The tracheal organ culture assay is carried out as follows. Tracheas are taken from hamsters that are in very early stages of vitamin A deficiency and placed in organ culture. At the time of culture, the animals are still gaining weight; the tracheal epithelium is generally low columnar or cuboidal, with only occasional patches of squamous metaplasia. Each trachea is opened from the larynx to the carina along the membranous dorsal wall and cultured in a serum-free medium (CMRL-1066; with crystalline bovine insulin, 0.1 μg/ml; hydrocortisone hemisuccinate, 0.1 μg/ml; glutamine, 2 mM; penicillin, 100 units/ml; and streptomycin,100 μg/ml, added). Cultures are gassed with 50% oxygen, 45% nitrogen, and 5% CO2. The culture dishes are rocked at 35.5-36.0 degrees to allow the tracheas contact with both gas and medium. All tracheas are grown in medium containing no retinoid for the first 3 days. At the end of 3 days, some tracheas are harvested; almost all of these tracheas have significant squamous metaplasia, and approximately 60% have keratinized lesions. The remaining tracheas are then divided into different groups which are treated with either: (1) retinoid dissolved in dimethylsulfoxide (final concentration of DMSO in culture medium is never greater than 0.1%) or (2) an equivalent amount of DMSO alone. Culture medium is changed three times a week, and all of the remaining tracheas are harvested at the end of 10 days in culture. Tracheas are fixed in 10% buffered formalin and embedded in paraffin. Cross sections of five micrometers are made through the mid-portion, stained with hematoxylin and eosin, and then scored with a microscope for the presence of keratin and keratohyaline granules, both of which are found in approximately 90% of control cultures that received no retinoid for the entire 10 day culture period.

ornithine decarboxylase = assay: ODC assay: inhibition of induction of ornithine decarboxylase by 12-O-tetradecanoylphorbol-13-acetate in mouse skin; format: in vivo, mouse (female Charles River CD-1); conditions: topical, 1 hour before TPA (17 nmol)
Description: as §1
The ODC assay is carried out as follows. Female Charles River CD-1 mice from Charles River Breeding Laboratories, Wilmington, Mass., are used (age 7 to 9 weeks). The dorsal hair of the mice is shaved 1 to 2 days before testing, and only mice showing no hair regrowth are used. A single dose of 12-O-tetradecanoylphorbol-13-acetate (TPA) (10.5 μg, 17 nmol) in 0.2 mL of acetone is applied topically to the back of each mouse. The test compound, at one of three dose levels (1.7, 17, and 170 nmol), dissolved in 0.2 mL of acetone is applied 1 hour before the TPA treatment to the test groups; the control group is treated with acetone alone. The mice are killed by cervical dislocation five hours after TPA treatment. Determinations are done in triplicate.
The epidermis is obtained from the sacrificed animals. To obtain sufficient material, the dorsal skins from 2 to b 3 mice in each treatment group are pooled. The depilatory agent Nudit® (Helena Rubinstein, New York) is applied to the shaved area of the skin; after 5 minutes, it is washed off thoroughly with cold tap water. […]
The supernatant fraction remaining after centrifugation of the homogenate at 10,000×g for 30 seconds at 0° C. is used for the enzyme assay. Enzyme activity is determined using the microassay for ODC as described by Verma and Boutwell to measure the release of ^14 CO2 from DL-[1-^14 C]-ornithine (58 mCi/mmol) after incubation with the 10,000×g supernatant. […]
Radioactivity is measured using a toluene-based scintillant (4 g of PPO and 50 mg of POPOP/L of toluene) in a Beckman LS-250 liquid scintillation counter. Enzyme activity is determined in triplicate and expressed as nanomoles of CO2 released in 30 minutes per milligram of protein. […] The protein concentrations of the epidermal extracts are determined by the Lowry procedure, using bovine serum albumin as the standard.

Row | Structure (SMILES) | Reversal of Keratinization, Active Cultures (%) ([1]; 10^-9 M) | Reversal of Keratinization, Active/Total Cultures ([1]; 10^-9 M) | Reversal of Keratinization, Active Cultures (%) ([1]; 10^-10 M) | Reversal of Keratinization, Active/Total Cultures ([1]; 10^-10 M) | Inhibition of Induction of Ornithine Decarboxylase by 12-O-Tetradecanoylphorbol-13-acetate in Mouse Skin, % Inhibition of Control (ornithine decarboxylase; dose 1.7 nmol) | Inhibition of Induction of Ornithine Decarboxylase by 12-O-Tetradecanoylphorbol-13-acetate in Mouse Skin, % Inhibition of Control (ornithine decarboxylase; dose 17 nmol) [%] | Reversal of Keratinization, Active Cultures (%) ([1]; 10^-8 M) | Reversal of Keratinization, Active/Total Cultures ([1]; 10^-8 M)
1 | [2H]C([2H])([2H])C1=C(/C=C/C(C)=C/C=C/C(C)=C/C(=O)O)C(C)(C)CCC1([2H])[2H] [(E)-retinoic acid-4,4,18,18,18-d5] | 100 | 8/8 | 86 | 6/7 | 90% | 90 | – | –
2 | CC1=C(/C=C/C(C)=C/C=C/C(C)=C/C(=O)O)C(C)(C)CCC1 [(E)-retinoic acid] | 88 | 419/474 | 52 | 134/256 | 87-91% | – | 100 | 236/236
